Patent publication US9102701B2, “17-hydroxy-17-pentafluoroethyl-estra-4,9(10)-diene-11-ethynylphenyl derivatives, methods for the production thereof and use thereof for treating diseases” (Bayer Intellectual Property GmbH, priority 2009, dated 2015)
In brackets after ≈: the same amount, converted by molar mass.

How the values were obtained:
[1] = molecular target: T1, human progesterone receptor B (Homo sapiens, UniProt P06401); test: Progesterone receptor-antagonistic action in stably transfected SK-N-MC cells, PR-B, MMTV-LUC reporter; format: cell-based; details: read-out: IC50 PR-B
T1 construct: expressed in transfected cells; host or cells: SK-N-MC human neuroblastoma cells, stably transfected with pRChPR-B-neo and pMMTV-LUC
T1 sequence (P06401 1-933): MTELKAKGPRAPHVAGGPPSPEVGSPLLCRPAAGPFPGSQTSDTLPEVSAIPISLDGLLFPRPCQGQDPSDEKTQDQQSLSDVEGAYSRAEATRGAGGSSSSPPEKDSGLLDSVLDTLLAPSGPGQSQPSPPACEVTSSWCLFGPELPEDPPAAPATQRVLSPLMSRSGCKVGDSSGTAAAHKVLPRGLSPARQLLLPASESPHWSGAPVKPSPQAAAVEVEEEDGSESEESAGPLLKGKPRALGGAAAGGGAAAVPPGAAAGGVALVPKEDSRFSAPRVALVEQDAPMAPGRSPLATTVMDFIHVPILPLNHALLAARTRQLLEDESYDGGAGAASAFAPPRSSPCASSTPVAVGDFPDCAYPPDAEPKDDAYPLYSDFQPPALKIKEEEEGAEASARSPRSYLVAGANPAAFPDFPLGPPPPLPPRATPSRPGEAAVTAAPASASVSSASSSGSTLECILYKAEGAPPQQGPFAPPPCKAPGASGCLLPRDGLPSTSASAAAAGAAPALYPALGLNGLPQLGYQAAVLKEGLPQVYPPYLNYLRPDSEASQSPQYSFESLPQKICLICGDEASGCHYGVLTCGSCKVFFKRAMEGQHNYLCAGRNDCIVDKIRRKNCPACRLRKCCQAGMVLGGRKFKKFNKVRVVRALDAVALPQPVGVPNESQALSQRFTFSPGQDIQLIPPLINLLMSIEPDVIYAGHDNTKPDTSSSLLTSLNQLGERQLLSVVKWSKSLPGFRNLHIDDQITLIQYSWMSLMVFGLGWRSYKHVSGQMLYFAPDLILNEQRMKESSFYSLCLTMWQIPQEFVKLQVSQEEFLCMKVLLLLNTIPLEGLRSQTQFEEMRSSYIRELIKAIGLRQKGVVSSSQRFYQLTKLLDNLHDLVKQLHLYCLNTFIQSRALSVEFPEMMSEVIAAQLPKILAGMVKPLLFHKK
Method in brief: (§1)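 SK-N-MC neuroblastoma cells stably expressing human PR-A or PR-B plus MMTV-LUC reporter, treated 24 h with compound (0.01 nmol/l upward). Antagonism measured against 0.1 nmol/l promegestone; luciferase in lysates as RLU, given as % efficacy and IC50 (agonism as EC50).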

[2] = Metabolic stability in human liver microsomes; format: in vitro ADME; details: for Predicted Fmax (maximum oral bioavailability) Human: calculated from liver microsome data; for Predicted clearance Human: predicted in vivo clearance from liver microsomes, well-stirred model, 1 μM
Protocol: Determination of Metabolic Stability in Human and Rat Liver Microsomes
Isolated Human Liver Microsomes (HLM) were Used to Assess the Metabolic Stability of compounds of general formula I.
The incubations were conducted with 2.4 ml of HLM solution (protein content 0.5 mg/ml), 30 μl of the test compound (final concentration 1 μM) and 0.6 ml of the cofactor mixture (═NADPH-generating system composed of 3 IU glucose-6-phosphate dehydrogenase, 14.6 mg glucose-6-phosphate, 1.2 mg NADP) at 37° C. in 100 mM phosphate buffer at pH 7.4. Samples were taken at 6 time points (2-60 min) and precipitated with an equal volume of methanol, and the recovery of the test substances used in the supernatant was determined by LC-MS/MS analysis. The half-life of substance degradation determined therefrom was used to calculate what is called the intrinsic clearance of the substance in the liver microsome preparation.

[3] = Solubility in aqueous medium at pH 7.4; format: physicochemical; details: for solubility (in words): aqueous medium under physiological conditions; for solubility: aqueous medium, pH 7.4, aqueous buffer
[4] = molecular target: T2, human progesterone receptor A (Homo sapiens, UniProt P06401); test: Progesterone receptor-antagonistic action in stably transfected SK-N-MC cells, PR-A, MMTV-LUC reporter; format: cell-based; details: read-out: IC50 PR-A
T2 construct: expressed in transfected cells; host or cells: SK-N-MC human neuroblastoma cells, stably transfected with pRChPR-A-neo and pMMTV-LUC
T2 sequence (P06401 1-769 isoform P06401-2): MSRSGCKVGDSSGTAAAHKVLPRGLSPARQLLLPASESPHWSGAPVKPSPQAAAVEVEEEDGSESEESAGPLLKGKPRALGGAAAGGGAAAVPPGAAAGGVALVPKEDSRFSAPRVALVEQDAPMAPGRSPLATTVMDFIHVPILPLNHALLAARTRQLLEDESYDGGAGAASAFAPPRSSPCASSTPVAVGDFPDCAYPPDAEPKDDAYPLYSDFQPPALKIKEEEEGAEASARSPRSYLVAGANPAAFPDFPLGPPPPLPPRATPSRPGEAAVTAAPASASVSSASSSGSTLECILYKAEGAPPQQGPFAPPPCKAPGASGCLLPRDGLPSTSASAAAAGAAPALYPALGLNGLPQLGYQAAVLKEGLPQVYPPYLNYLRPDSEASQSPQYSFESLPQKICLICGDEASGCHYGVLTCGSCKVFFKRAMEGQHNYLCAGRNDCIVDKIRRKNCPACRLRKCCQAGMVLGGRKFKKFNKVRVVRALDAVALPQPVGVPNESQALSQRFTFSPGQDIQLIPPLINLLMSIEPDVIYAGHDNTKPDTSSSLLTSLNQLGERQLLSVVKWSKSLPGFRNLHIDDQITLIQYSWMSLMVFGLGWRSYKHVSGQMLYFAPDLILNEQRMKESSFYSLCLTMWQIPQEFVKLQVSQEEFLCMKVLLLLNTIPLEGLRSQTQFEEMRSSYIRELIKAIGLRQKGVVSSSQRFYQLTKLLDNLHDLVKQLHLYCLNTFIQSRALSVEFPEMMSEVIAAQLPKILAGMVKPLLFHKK
Method in brief: as §1

SMILES: C[C@]12C[C@H](c3ccc(C#CCOCCO)cc3)C3=C4CCC(=O)C=C4CC[C@H]3[C@@H]1CC[C@@]2(O)C(F)(F)C(F)(F)F [Example 11, (8S,11R,13S,14S,17S)-17-hydroxy-11-{4-[3-(2-hydroxyethoxy)prop-1-yn-1-yl]-phenyl}-13-methyl-17-pentafluoroethyl-1,2,6,7,8,11,12,13,14,15,16,17-dodecahydrocyclopenta[a]phenanthren-3-one]
- IC50 [1]: 1 nM
- Predicted Fmax (maximum oral bioavailability) Human [2]: 63%
- Predicted clearance Human [2]: 8.17 mL/min/kg
- solubility (in words) [3]: improved solubility
- solubility [3]: 30 µg/mL (≈ 53.1 µM)
- IC50 [4]: 0.32 nM

SMILES: C[C@]12C[C@H](c3ccc(C#C/C=C/c4cccc(C(=O)O)c4)cc3)C3=C4CCC(=O)C=C4CCC3C1CC[C@@]2(O)C(F)(F)C(F)(F)F (stereo partly drawn) [Example 13A, 3-{(E)-4-[4-((8S,11R,13S,14S,17S)-17-hydroxy-13-methyl-3-oxo-17-pentafluoroethyl-2,3,6,7,8,11,12,13,14,15,16,17-dodecahydro-1H-cyclopenta[a]phenanthren-1′-yl)phenyl]but-1-en-3-ynyl}benzoic acid]
- IC50 [1]: 0.2 nM
- Predicted clearance Human [2]: 5.17 mL/min/kg
- solubility (in words) [3]: improved solubility
- solubility [3]: 148 µg/mL (≈ 232 µM)
- IC50 [4]: 0.1 nM

SMILES: C[C@]12C[C@H](c3ccc(C#C/C=N/OCc4ccccc4)cc3)C3=C4CCC(=O)C=C4CCC3C1CC[C@@]2(O)C(F)(F)C(F)(F)F (stereo partly drawn) [Example 24A, (E)-[4-((8S,11R,13S,14S,17S)-17-hydroxy-13-methyl-3-oxo-17-pentafluoroethyl-2,3,6,7,8,11,12,13,14,15,16,17-dodecahydro-1H-cyclopenta[a]phenanthren-1′-yl)phenyl]propynal O-benzyl oxime]
- IC50 [1]: 0.1 nM
- Predicted Fmax (maximum oral bioavailability) Human [2]: 34%
- Predicted clearance Human [2]: 14.7 mL/min/kg
- solubility [3]: 5 µg/mL (≈ 8.02 µM)
- IC50 [4]: 0.1 nM

SMILES: CCO/N=C/C#Cc1ccc([C@H]2C[C@@]3(C)[C@@H](CC[C@@]3(O)C(F)(F)C(F)(F)F)[C@@H]3CCC4=CC(=O)CCC4=C32)cc1 [Example 25A, (E)-[4-((8S,11R,13S,14S,17S)-17-hydroxy-13-methyl-3-oxo-17-pentafluoroethyl-2,3,6,7,8,11,12,13,14,15,16,17-dodecahydro-1H-cyclopenta[a]phenanthren-1′-yl)phenyl]propynal O-ethyl oxime]
- IC50 [1]: 0.08 nM
- Predicted Fmax (maximum oral bioavailability) Human [2]: 47%
- Predicted clearance Human [2]: 11.7 mL/min/kg
- solubility [3]: 5 µg/mL (≈ 8.9 µM)
- IC50 [4]: 0.01 nM

SMILES: CCNC(=O)NCC#Cc1ccc([C@H]2C[C@@]3(C)C(CC[C@@]3(O)C(F)(F)C(F)(F)F)C3CCC4=CC(=O)CCC4=C32)cc1 (stereo partly drawn) [Example 31, 1-ethyl-3-{3-[4-((8S,11R,13S,14S,17S)-17-hydroxy-13-methyl-3-oxo-17-pentafluoroethyl-2,3,6,7,8,11,12,13,14,15,16,17-dodecahydro-1H-cyclopenta[a]phenanthren-1′-yl)phenyl]prop-2-ynyl}urea]
- IC50 [1]: 0.1 nM
- Predicted Fmax (maximum oral bioavailability) Human [2]: 15%
- Predicted clearance Human [2]: 18.8 mL/min/kg
- solubility [3]: 10 µg/mL (≈ 16.9 µM)
- IC50 [4]: 0.08 nM

SMILES: C[C@]12C[C@H](c3ccc(C#CCNC(=O)Nc4ccccc4)cc3)C3=C4CCC(=O)C=C4CC[C@H]3[C@@H]1CC[C@@]2(O)C(F)(F)C(F)(F)F [Example 34, 1-{3-[4-((8S,11R,13S,14S,17S)-17-hydroxy-13-methyl-3-oxo-17-pentafluoroethyl-2,3,6,7,8,11,12,13,14,15,16,17-dodecahydro-1H-cyclopenta[a]phenanthren-11-yl)phenyl]prop-2-ynyl}-3-phenylurea]
- IC50 [1]: 0.1 nM
- Predicted Fmax (maximum oral bioavailability) Human [2]: 9%
- Predicted clearance Human [2]: 20.2 mL/min/kg
- solubility [3]: 7 µg/mL (≈ 11 µM)
- IC50 [4]: 0.1 nM
